Results reported in paper PMC6891286, “Towards the Development of an In vivo Chemical Probe for Cyclin G Associated Kinase (GAK)” (Molecules, 2019).

Assays:
Test in all cases: KINOMEscan
Type in all cases: binding
Details in all cases: 35 at 1 µM; read-out: % inhibition
[1] = molecular target: T1, ABL1(H396P)-nonphosphorylated (Homo sapiens, UniProt P00519, H396P)
T1 construct: purchased Eurofins DiscoverX (KINOMEscan)
Description: (§1) KinomeScan Assay on 35 was performed as previously described at EuroFins DiscoverX (Fremont, CA, USA).

ACVR2B = molecular target: T2, ACVR2B (Homo sapiens, UniProt Q13705)
T2 construct: purchased Eurofins DiscoverX (KINOMEscan)
Description: as §1

ALK = molecular target: T3, ALK (Homo sapiens, UniProt Q9UM73)
T3 construct: purchased Eurofins DiscoverX (KINOMEscan)
T3 sequence (Q9UM73 19-1620): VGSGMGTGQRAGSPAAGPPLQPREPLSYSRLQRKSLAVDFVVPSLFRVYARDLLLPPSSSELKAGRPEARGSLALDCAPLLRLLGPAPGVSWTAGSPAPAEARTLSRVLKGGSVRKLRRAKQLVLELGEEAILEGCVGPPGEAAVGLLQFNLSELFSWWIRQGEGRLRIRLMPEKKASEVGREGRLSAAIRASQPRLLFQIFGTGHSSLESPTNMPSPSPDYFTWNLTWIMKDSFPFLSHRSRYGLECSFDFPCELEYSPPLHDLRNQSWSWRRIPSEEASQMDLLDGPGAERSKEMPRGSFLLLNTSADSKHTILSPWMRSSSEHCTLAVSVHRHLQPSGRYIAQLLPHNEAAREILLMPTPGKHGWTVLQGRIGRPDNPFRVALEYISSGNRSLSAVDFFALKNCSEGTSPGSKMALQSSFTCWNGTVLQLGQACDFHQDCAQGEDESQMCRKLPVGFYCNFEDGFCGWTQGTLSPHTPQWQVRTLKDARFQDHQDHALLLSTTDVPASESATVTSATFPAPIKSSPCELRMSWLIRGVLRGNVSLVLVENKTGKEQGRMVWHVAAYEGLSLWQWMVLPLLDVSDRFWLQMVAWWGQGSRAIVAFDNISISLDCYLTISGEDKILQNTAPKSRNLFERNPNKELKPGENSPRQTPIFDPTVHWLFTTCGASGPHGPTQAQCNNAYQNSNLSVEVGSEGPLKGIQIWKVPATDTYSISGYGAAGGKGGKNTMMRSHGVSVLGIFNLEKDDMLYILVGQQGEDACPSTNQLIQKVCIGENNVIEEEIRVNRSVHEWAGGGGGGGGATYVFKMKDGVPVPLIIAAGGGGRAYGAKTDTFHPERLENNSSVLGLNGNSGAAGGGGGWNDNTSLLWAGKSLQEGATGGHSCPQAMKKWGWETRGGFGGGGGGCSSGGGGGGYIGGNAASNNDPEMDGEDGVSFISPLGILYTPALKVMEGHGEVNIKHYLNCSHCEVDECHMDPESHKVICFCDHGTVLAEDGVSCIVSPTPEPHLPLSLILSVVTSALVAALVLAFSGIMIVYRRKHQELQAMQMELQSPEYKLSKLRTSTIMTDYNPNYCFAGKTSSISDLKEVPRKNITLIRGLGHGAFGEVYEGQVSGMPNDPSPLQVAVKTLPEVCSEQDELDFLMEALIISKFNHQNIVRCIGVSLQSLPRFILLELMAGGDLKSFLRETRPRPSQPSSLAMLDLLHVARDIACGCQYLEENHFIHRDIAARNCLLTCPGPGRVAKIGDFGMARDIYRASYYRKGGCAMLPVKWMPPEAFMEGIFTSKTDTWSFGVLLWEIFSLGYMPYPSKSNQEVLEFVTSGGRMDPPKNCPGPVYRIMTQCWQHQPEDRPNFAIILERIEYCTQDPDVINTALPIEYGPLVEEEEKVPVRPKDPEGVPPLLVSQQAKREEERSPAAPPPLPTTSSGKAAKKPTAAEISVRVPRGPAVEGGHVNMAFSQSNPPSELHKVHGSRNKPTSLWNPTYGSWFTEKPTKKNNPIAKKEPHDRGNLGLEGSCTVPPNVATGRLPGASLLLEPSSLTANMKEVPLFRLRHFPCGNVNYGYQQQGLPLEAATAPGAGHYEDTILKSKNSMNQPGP
Description: as §1

ALK(C1156Y) = molecular target: T4, ALK(C1156Y) (Homo sapiens, UniProt Q9UM73, C1156Y)
T4 construct: purchased Eurofins DiscoverX (KINOMEscan)
T4 sequence (Q9UM73 19-1620 C1156Y): as the sequence (Q9UM73 19-1620) above, with C1138Y counted along it
Description: as §1

ARK5 = molecular target: T5, ARK5 (Homo sapiens, UniProt O60285)
T5 construct: purchased Eurofins DiscoverX (KINOMEscan)
Description: as §1

CAMK1D = molecular target: T6, CAMK1D (Homo sapiens, UniProt Q8IU85)
T6 construct: purchased Eurofins DiscoverX (KINOMEscan)
T6 sequence (Q8IU85 whole entry): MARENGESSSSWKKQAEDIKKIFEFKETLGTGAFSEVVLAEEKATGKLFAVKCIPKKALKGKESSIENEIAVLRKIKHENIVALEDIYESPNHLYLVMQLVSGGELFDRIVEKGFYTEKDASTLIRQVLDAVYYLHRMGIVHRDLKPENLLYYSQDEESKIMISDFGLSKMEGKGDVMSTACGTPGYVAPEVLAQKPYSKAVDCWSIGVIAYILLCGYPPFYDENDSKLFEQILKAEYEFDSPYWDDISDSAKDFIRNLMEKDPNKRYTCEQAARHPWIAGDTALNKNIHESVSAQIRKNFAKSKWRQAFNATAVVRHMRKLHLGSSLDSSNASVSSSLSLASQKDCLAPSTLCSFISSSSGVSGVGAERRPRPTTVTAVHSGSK
Description: as §1

CASK = molecular target: T7, CASK (Homo sapiens, UniProt O14936)
T7 construct: purchased Eurofins DiscoverX (KINOMEscan)
Description: as §1

CDKL1 = molecular target: T8, CDKL1 (Homo sapiens, UniProt Q00532)
T8 construct: purchased Eurofins DiscoverX (KINOMEscan)
Description: as §1

DRAK1 = molecular target: T9, DRAK1 (Homo sapiens, UniProt Q9UEE5)
T9 construct: purchased Eurofins DiscoverX (KINOMEscan)
Description: as §1

DRAK2 = molecular target: T10, DRAK2 (Homo sapiens, UniProt O94768)
T10 construct: purchased Eurofins DiscoverX (KINOMEscan)
Description: as §1

EGFR(G719C) = molecular target: T11, EGFR(G719C) (Homo sapiens, UniProt P00533, G719C)
T11 construct: purchased Eurofins DiscoverX (KINOMEscan)
Description: as §1

EPHA3 = molecular target: T12, EPHA3 (Homo sapiens, UniProt P29320)
T12 construct: purchased Eurofins DiscoverX (KINOMEscan)
T12 sequence (P29320 21-983): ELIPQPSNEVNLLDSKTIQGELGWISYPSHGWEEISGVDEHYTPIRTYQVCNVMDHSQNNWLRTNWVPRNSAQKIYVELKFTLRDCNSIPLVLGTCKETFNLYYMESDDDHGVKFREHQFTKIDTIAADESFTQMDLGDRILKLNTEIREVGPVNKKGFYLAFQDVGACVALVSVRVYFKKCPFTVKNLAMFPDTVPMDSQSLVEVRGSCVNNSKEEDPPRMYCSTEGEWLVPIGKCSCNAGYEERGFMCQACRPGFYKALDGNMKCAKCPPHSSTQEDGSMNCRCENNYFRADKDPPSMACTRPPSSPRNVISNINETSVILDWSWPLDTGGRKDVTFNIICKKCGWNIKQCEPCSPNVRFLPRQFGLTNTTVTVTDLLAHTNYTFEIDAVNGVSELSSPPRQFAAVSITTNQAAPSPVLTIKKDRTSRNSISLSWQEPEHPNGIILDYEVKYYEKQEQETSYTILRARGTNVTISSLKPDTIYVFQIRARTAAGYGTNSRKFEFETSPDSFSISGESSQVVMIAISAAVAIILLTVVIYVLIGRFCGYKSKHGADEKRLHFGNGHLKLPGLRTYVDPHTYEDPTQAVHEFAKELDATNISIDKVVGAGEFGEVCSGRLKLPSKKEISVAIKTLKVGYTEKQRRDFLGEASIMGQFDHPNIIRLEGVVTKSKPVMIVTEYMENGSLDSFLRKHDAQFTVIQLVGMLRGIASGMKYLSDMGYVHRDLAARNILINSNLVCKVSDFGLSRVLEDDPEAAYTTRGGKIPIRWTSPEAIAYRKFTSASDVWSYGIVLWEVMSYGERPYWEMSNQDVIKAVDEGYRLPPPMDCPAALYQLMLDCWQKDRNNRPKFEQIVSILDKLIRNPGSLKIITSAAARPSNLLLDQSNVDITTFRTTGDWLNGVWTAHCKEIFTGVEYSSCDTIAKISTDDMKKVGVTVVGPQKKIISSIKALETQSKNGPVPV
Description: as §1

EPHA4 = molecular target: T13, EPHA4 (Homo sapiens, UniProt P54764)
T13 construct: purchased Eurofins DiscoverX (KINOMEscan)
Description: as §1

EPHB3 = molecular target: T14, EPHB3 (Homo sapiens, UniProt P54753)
T14 construct: purchased Eurofins DiscoverX (KINOMEscan)
Description: as §1

ERK3 = molecular target: T15, ERK3 (Homo sapiens, UniProt Q16659)
T15 construct: purchased Eurofins DiscoverX (KINOMEscan)
Description: as §1

FLT4 = molecular target: T16, FLT4 (Homo sapiens, UniProt P35916)
T16 construct: purchased Eurofins DiscoverX (KINOMEscan)
Description: as §1

HASPIN = molecular target: T17, HASPIN (Homo sapiens, UniProt Q8TF76)
T17 construct: purchased Eurofins DiscoverX (KINOMEscan)
Description: as §1

HIPK4 = molecular target: T18, HIPK4 (Homo sapiens, UniProt Q8NE63)
T18 construct: purchased Eurofins DiscoverX (KINOMEscan)
Description: as §1

HPK1 = molecular target: T19, HPK1 (Homo sapiens, UniProt Q92918)
T19 construct: purchased Eurofins DiscoverX (KINOMEscan)
Description: as §1

IKK-alpha = molecular target: T20, IKK-alpha (Homo sapiens, UniProt O15111)
T20 construct: purchased Eurofins DiscoverX (KINOMEscan)
Description: as §1

IKK-beta = molecular target: T21, IKK-beta (Homo sapiens, UniProt O14920)
T21 construct: purchased Eurofins DiscoverX (KINOMEscan)
Description: as §1

KIT-autoinhibited = molecular target: T22, KIT-autoinhibited (Homo sapiens, UniProt P10721)
T22 construct: purchased Eurofins DiscoverX (KINOMEscan)
Description: as §1

MET(Y1235D) = molecular target: T23, MET(Y1235D) (Homo sapiens, UniProt P08581, Y1235D)
T23 construct: purchased Eurofins DiscoverX (KINOMEscan)
Description: as §1

NEK2 = molecular target: T24, NEK2 (Homo sapiens, UniProt P51955)
T24 construct: purchased Eurofins DiscoverX (KINOMEscan)
T24 sequence (P51955 whole entry): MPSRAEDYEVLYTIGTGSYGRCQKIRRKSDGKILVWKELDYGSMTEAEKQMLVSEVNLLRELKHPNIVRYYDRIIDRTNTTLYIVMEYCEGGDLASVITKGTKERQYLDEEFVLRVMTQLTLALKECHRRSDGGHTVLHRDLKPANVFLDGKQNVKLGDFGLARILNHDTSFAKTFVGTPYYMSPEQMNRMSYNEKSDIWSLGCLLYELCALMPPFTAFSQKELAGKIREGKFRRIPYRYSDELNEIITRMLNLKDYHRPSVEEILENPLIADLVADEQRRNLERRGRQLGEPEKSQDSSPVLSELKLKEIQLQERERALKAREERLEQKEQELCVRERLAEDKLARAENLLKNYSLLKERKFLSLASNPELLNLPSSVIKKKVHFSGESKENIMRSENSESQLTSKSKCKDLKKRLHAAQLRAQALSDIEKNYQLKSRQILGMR
Description: as §1

OSR1 = molecular target: T25, OSR1 (Homo sapiens, UniProt O95747)
T25 construct: purchased Eurofins DiscoverX (KINOMEscan)
Description: as §1

PAK1 = molecular target: T26, PAK1 (Homo sapiens, UniProt Q13153)
T26 construct: purchased Eurofins DiscoverX (KINOMEscan)
Description: as §1

PDGFRB = molecular target: T27, PDGFRB (Homo sapiens, UniProt P09619)
T27 construct: purchased Eurofins DiscoverX (KINOMEscan)
Description: as §1

PFTAIRE2 = molecular target: T28, PFTAIRE2 (Homo sapiens, UniProt Q96Q40)
T28 construct: purchased Eurofins DiscoverX (KINOMEscan)
T28 sequence (Q96Q40 whole entry): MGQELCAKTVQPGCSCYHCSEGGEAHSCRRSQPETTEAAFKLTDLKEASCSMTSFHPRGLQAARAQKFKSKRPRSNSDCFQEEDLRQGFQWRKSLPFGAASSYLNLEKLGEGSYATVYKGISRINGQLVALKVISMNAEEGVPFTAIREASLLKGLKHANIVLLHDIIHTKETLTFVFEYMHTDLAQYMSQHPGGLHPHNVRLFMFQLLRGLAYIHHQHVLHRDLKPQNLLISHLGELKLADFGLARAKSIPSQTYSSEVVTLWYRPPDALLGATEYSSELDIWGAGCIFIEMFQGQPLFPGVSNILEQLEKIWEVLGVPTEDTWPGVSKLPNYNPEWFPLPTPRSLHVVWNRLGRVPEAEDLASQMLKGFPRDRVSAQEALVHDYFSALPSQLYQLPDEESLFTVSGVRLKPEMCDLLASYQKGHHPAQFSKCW
Description: as §1

PIK3CA = molecular target: T29, PIK3CA (Homo sapiens, UniProt P42336)
T29 construct: purchased Eurofins DiscoverX (KINOMEscan)
T29 sequence (P42336 whole entry): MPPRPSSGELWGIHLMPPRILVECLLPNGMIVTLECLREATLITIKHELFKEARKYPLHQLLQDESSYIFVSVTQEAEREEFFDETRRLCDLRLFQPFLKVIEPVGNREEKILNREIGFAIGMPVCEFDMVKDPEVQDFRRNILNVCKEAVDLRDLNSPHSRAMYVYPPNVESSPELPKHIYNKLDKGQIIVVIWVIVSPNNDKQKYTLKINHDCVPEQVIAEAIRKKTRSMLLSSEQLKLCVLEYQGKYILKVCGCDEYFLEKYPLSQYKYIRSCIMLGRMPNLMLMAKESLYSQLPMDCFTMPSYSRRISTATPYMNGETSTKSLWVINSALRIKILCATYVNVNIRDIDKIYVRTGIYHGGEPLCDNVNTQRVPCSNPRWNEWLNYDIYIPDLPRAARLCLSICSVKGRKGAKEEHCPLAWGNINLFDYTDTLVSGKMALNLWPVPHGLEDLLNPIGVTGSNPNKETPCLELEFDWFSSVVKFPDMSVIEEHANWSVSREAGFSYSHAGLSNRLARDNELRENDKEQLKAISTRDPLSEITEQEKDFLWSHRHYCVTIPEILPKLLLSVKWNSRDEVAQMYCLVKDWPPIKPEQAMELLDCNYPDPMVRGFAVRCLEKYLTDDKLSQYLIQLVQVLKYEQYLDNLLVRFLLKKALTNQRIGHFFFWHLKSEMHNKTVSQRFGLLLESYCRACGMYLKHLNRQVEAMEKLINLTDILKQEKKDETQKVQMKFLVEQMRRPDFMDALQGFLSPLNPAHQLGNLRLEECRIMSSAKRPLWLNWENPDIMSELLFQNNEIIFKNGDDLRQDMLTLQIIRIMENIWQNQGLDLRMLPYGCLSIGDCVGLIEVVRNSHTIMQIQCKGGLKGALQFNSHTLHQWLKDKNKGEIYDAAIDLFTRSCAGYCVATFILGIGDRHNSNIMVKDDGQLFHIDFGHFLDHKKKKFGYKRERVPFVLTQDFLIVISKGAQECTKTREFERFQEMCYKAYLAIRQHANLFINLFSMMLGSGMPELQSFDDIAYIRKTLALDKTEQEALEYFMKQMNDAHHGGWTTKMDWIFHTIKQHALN
Description: as §1

PIK3CA(I800L) = molecular target: T30, PIK3CA(I800L) (Homo sapiens, UniProt P42336, I800L)
T30 construct: purchased Eurofins DiscoverX (KINOMEscan)
T30 sequence (P42336 whole entry I800L): as the sequence (P42336 whole entry) above, with I800L counted along it
Description: as §1

PIK3CD = molecular target: T31, PIK3CD (Homo sapiens, UniProt O00329)
T31 construct: purchased Eurofins DiscoverX (KINOMEscan)
Description: as §1

PIP5K2B = molecular target: T32, PIP5K2B (Homo sapiens, UniProt P78356)
T32 construct: purchased Eurofins DiscoverX (KINOMEscan)
Description: as §1

PLK2 = molecular target: T33, PLK2 (Homo sapiens, UniProt Q9NYY3)
T33 construct: purchased Eurofins DiscoverX (KINOMEscan)
Description: as §1

PRKCE = molecular target: T34, PRKCE (Homo sapiens, UniProt Q02156)
T34 construct: purchased Eurofins DiscoverX (KINOMEscan)
Description: as §1

PRKD2 = molecular target: T35, PRKD2 (Homo sapiens, UniProt Q9BZL6)
T35 construct: purchased Eurofins DiscoverX (KINOMEscan)
Description: as §1

QSK = molecular target: T36, QSK (Homo sapiens, UniProt Q9Y2K2)
T36 construct: purchased Eurofins DiscoverX (KINOMEscan)
Description: as §1

ROCK2 = molecular target: T37, ROCK2 (Homo sapiens, UniProt O75116)
T37 construct: purchased Eurofins DiscoverX (KINOMEscan)
Description: as §1

ROS1 = molecular target: T38, ROS1 (Homo sapiens, UniProt P08922)
T38 construct: purchased Eurofins DiscoverX (KINOMEscan)
Description: as §1

SNRK = molecular target: T39, SNRK (Homo sapiens, UniProt Q9NRH2)
T39 construct: purchased Eurofins DiscoverX (KINOMEscan)
Description: as §1

TRKC = molecular target: T40, TRKC (Homo sapiens, UniProt Q16288)
T40 construct: purchased Eurofins DiscoverX (KINOMEscan)
Description: as §1

TXK = molecular target: T41, TXK (Homo sapiens, UniProt P42681)
T41 construct: purchased Eurofins DiscoverX (KINOMEscan)
Description: as §1

[2] = molecular target: T42, TYK2(JH1domain-catalytic) (Homo sapiens, UniProt P29597)
T42 construct: TYK2(JH1domain-catalytic); purchased Eurofins DiscoverX (KINOMEscan)
Description: as §1

p38-alpha = molecular target: T43, p38-alpha (Homo sapiens, UniProt Q16539)
T43 construct: purchased Eurofins DiscoverX (KINOMEscan)
Description: as §1

SMILES: Brc1ccc2nccc(Nc3ccc4cn[nH]c4c3)c2c1 [Compound 35, 6-Bromo-N-(1H-indazol-6-yl)quinolin-4-amine]
- activity at 1 µM [1]: 86%
- activity at 1 µM (ACVR2B): 36%
- activity at 1 µM (ALK): 100%
- activity at 1 µM (ALK(C1156Y)): 64%
- activity at 1 µM (ARK5): 100%
- activity at 1 µM (CAMK1D): 100%
- activity at 1 µM (CASK): 68%
- activity at 1 µM (CDKL1): 47%
- activity at 1 µM (DRAK1): 100%
- activity at 1 µM (DRAK2): 100%
- activity at 1 µM (EGFR(G719C)): 83%
- activity at 1 µM (EPHA3): 100%
- activity at 1 µM (EPHA4): 100%
- activity at 1 µM (EPHB3): 100%
- activity at 1 µM (ERK3): 100%
- activity at 1 µM (FLT4): 100%
- activity at 1 µM (HASPIN): 79%
- activity at 1 µM (HIPK4): 57%
- activity at 1 µM (HPK1): 100%
- activity at 1 µM (IKK-alpha): 100%
- activity at 1 µM (IKK-beta): 100%
- activity at 1 µM (KIT-autoinhibited): 100%
- activity at 1 µM (MET(Y1235D)): 100%
- activity at 1 µM (NEK2): 86%
- activity at 1 µM (OSR1): 76%
- activity at 1 µM (PAK1): 85%
- activity at 1 µM (PDGFRB): 100%
- activity at 1 µM (PFTAIRE2): 100%
- activity at 1 µM (PIK3CA): 100%
- activity at 1 µM (PIK3CA(I800L)): 76%
- activity at 1 µM (PIK3CD): 100%
- activity at 1 µM (PIP5K2B): 100%
- activity at 1 µM (PLK2): 100%
- activity at 1 µM (PRKCE): 95%
- activity at 1 µM (PRKD2): 90%
- activity at 1 µM (QSK): 100%
- activity at 1 µM (ROCK2): 91%
- activity at 1 µM (ROS1): 94%
- activity at 1 µM (SNRK): 100%
- activity at 1 µM (TRKC): 82%
- activity at 1 µM (TXK): 100%
- activity at 1 µM [2]: 100%
- activity at 1 µM (p38-alpha): 100%
